# Reference: patent EP0787493A1, “Tetrahydroisoquinoline derivatives” (priority 1996, dated 1997)
# Like-named read-outs stand apart in the source and are kept apart here.
# Key:
# [1] = target: NMDA receptors; assay: 3H-MK801 (Dizocilpine) binding in vitro; settings: rat whole brain membranes, 5nM 3H-MK-801, glutamate, glycine and spermidine present
# Procedure: 3H-MK801 (Dizocilpine) binding in vitro
# The whole brain from 150-200g male rats, without cerebellum and without medulla oblongata was dissected on ice. The tissue was then homogenized with an Ultra-Turrax maximum speed during 30 seconds at 4°C in 50 volumes of cold Tris HCI 50mM, EDTA disodium 10mM, pH=7.4 buffer (wet weight/v). The homogenate was centrifuged at 48'000 x g (20'000 rpm, SS34, Sorvall RC5C) for 10 minutes. The pellet was rehomogenized with the same volume of buffer and the homogenate incubated at 37°C for 10 minutes. After centrifugation as above, the pellet was rehomogenized with the same volume of buffer and frozen at -80°C in 35 ml fractions for at least 16 hours and not more than 2 weeks.
# For the binding experiment, the homogenate was centrifuged as above and the pellet was washed 3 times by homogenization in 25 volumes of cold Tris HCl 5mM, pH=7.4 buffer (Ultra-Turrax, maximum speed, 30 seconds) and centrifugation as above. The final pellet was rehomogenized in 25 volumes of buffer (original wet weight) and used as such in the assay. The final concentration of membrane in the assay was 20mg/ml (wet weight).
# The incubation was performed in the presence of 1nM glutamate, glycine and spermidine. MK-801, (+)-[3-3H(N)], NEN (NET-972) 20Ci/mmol, was used at 5nM final concentration. Non specific binding was determined in presence of […] TCP. After 2 hours of incubation at room temperature, the suspension was filtered (Whatmann GF/B, soaked in 0.1% polyethylenimine for 2 hours) and washed 5 times with 3 ml of cold Tris HCl 5mM, pH=7.4 buffer. The air-dried filters were counted with 10ml of Ultima-gold (Packard) in a Tri-Carb 2500 TR scintillation counter after agitation.
# The DPM were transformed in % of specific binding and these values were treated by a non linear regression calculation program (BINDING, H. Affolter, Switzerland) which provided the IC50 values for the low and high affinity binding sites (= concentrations producing half maximal inhibition at the respective sites). Each experiment was repeated at least three times and the final IC50 values were calculated as the mean +/-standard deviation of the individual experiments.
# Reference: R.W. Ransom and N.L. Stec. Journal of Neurochemistry 51, 830-836, 1988.
# [2] = target: T1, NMDAR1C - NMDAR2A (Rattus norvegicus, UniProt P35439+Q00959); assay: Electrophysiology on recombinant NMDA receptors expressed in oocytes; type: cell-based; settings: Xenopus laevis oocytes, voltage clamp -80 mV; 70 µM Asp plus 2.5 µM Gly; read-out: Electrophysiology/IC50 (µM) oocytes NMDAR 1C & 2A
# T1 construct: expressed in transfected cells; host or cells: Xenopus laevis oocytes injected with in vitro transcribed mRNA (1:1 mixture)
# Text: (§1) Electrophysiology on recombinant NMDA receptors.
# (§2) cDNA clones coding for the subunits NMDAR1C and NMDAR2A of the NMDA receptor (see Hollmann and Heinemann, 1994, Annu. Rev. Neurosci. 17: 31 for nomenclature of NMDA receptor subunits) were isolated from a rat brain λgt11 cDNA library as published elsewhere (Sigel et al., 1994, J. Biol. Chem. 269:8204). The clone for the subunit NMDAR2B of the rat brain NMDA receptor was obtained from S.Nakanishi (Kyoto, Japan). The cDNAs were transcribed, capped and poly(A^+)-tailed as described previously (Malherbe et al., 1990, Mol. Brain Res. 8: 199). Oocytes of South African frogs (Xenopus laevis) were used for expressing either a combination of the NMDAR1C and NMDAR2A subunits or the NMDAR1C and NMDAR2B subunits. Approximately 3 fmol of a 1:1 mixture of the respective mRNA species were injected into every oocyte. Four to five days later the ion current through the NMDA receptor channels was measured in voltage clamp experiments (see Methfessel et al., 1986, Pflügers Arch. 407: 577 for the methods of oocyte expression and voltage-clamping). The membrane potential was clamped to -80 mV and the receptors were activated by applying a modified Ringer's solution containing the agonists L-asparatate (Asp) and glycine (Gly). Different agonist concentrations were chosen for either subunit combination to account for the different agonist sensitivities of the two types of receptors (70 µM Asp plus 2.5 µM Gly for NMDAR1C - NMDAR2A and 15 µM Asp plus 0.2 µM Gly for NMDAR1C - NMDAR2B). The agonists were applied for 15 s intervals once every 2.5 min by rapid superfusion of the oocyte. After a series of initial control stimuli increasing concentrations of the antagonist to be tested were added to both, the basal Ringer's and the agonist containing solution. For the data analysis the amplitude (y) of the agonist-induced current was plotted versus the concentration (x) of the antagonist and the logistic function y =A/[1 +(x/IC50)^H ] [formula] was fitted to the data to estimate the 50 % inhibitory concentration (IC50). Three to six oocytes were tested for every antagonist and if possible, at least 3 concentrations embracing the IC50 were applied to every oocyte. […] In two other cases a concentration of 0.1 µM produced a slowly increasing block which exceeded 50% after 30 min. […] Figures for the IC50 in all other cases are arithmetic mean values of individual IC50s determined by the logistic curve fits.
# [3] = target: T2, NMDAR1C - NMDAR2B (Rattus norvegicus, UniProt P35439+Q00960); assay: as above; type: cell-based; settings: Xenopus laevis oocytes, voltage clamp -80 mV; 15 µM Asp plus 0.2 µM Gly; read-out: Electrophysiology/IC50 (µM) oocytes NMDAR 1C & 2B
# T2 construct: expressed in transfected cells; host or cells: Xenopus laevis oocytes injected with in vitro transcribed mRNA (1:1 mixture)
# Text: as §1, §2
# [4] = high affinity binding site, read-out: 3H-MK 801 / IC50 (µM) high
# [5] = low affinity binding site, read-out: 3H-MK 801 / IC50 (µM) low
# T1 sequence (Q00959 23-1464, other chains not shown): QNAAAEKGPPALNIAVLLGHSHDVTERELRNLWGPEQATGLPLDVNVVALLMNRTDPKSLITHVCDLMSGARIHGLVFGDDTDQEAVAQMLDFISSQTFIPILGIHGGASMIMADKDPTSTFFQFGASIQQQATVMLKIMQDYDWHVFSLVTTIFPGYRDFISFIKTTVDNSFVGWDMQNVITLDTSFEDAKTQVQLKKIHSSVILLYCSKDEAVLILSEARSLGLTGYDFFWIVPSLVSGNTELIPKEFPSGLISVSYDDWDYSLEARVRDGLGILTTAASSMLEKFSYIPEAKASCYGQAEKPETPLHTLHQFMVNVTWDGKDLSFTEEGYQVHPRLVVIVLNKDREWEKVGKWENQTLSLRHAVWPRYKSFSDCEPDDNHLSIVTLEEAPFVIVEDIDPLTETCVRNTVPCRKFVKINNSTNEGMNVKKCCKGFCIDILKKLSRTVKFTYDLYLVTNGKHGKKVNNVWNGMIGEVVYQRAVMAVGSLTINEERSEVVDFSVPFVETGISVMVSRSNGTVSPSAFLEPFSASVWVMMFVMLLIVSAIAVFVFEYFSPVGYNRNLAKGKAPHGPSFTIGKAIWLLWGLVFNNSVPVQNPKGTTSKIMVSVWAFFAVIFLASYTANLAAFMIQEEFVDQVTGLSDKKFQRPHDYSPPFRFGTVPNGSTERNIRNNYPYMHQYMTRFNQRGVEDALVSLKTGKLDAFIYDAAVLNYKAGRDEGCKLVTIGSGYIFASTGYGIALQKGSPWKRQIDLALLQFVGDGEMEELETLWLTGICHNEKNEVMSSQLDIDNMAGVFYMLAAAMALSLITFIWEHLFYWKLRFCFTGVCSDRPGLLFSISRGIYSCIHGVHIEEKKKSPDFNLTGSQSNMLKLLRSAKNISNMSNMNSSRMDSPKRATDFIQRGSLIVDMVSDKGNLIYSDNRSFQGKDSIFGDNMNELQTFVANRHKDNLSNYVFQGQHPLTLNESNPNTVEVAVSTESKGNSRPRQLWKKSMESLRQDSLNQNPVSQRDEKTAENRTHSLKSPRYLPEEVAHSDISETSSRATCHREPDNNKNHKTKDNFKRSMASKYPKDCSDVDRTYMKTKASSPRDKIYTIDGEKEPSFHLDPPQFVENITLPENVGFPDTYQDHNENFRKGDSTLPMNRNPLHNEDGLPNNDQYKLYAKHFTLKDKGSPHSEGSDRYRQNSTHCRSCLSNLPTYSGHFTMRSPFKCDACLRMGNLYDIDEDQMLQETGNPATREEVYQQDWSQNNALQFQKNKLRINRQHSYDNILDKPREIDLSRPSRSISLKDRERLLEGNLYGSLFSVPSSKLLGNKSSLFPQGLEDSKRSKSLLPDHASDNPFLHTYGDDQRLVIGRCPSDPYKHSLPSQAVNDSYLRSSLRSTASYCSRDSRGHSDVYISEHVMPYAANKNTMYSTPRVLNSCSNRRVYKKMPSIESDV
# T2 sequence (Q00960 27-1482, other chains not shown): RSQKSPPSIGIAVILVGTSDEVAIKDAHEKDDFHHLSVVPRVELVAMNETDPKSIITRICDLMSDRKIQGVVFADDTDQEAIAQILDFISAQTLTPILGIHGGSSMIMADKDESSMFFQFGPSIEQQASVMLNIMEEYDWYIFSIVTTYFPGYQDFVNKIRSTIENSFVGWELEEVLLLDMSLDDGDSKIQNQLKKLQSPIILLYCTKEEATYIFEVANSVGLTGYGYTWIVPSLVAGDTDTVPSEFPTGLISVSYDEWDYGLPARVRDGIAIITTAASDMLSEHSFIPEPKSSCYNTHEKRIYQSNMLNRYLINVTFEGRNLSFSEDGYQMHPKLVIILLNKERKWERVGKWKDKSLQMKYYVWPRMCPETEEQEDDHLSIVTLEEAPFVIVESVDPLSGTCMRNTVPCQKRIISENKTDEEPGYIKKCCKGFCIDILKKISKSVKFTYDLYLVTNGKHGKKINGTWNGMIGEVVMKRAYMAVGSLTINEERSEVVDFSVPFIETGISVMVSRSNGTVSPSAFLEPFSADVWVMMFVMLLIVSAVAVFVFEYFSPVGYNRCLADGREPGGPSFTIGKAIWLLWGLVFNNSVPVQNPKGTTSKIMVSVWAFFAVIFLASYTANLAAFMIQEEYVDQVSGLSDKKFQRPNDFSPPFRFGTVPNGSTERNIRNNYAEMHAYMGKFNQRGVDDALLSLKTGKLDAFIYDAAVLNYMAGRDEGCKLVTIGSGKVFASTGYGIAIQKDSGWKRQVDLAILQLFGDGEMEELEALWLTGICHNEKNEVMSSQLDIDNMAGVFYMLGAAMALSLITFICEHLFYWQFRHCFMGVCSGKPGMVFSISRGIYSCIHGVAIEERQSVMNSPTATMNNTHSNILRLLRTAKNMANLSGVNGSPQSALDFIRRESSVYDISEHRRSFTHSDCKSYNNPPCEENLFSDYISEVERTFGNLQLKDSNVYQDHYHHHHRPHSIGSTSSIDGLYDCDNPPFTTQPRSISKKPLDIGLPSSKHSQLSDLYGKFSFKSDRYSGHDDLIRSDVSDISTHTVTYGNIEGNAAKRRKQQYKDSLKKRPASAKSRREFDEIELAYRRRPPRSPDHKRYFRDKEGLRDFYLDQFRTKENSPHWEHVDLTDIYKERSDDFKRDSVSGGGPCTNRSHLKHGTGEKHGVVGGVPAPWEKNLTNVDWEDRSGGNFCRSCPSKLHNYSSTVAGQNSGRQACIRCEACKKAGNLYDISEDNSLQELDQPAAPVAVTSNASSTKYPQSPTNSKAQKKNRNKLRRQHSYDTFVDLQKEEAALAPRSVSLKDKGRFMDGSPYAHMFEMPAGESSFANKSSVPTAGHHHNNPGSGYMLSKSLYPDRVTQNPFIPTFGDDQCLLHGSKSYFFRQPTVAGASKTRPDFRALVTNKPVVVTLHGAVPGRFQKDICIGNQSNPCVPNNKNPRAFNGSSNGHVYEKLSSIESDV
Structure (SMILES),"IC50 [1, 4] [µM]","IC50 [1, 5] [µM]",IC50 [2] [µM],IC50 [3] [µM]
"COc1cc2c(cc1OC)C(CC(O)c1ccc(Cl)cc1)N(C)CC2 (single isomer, unassigned) [V]",2.9,110,,
COc1cc2c(cc1OC)C(CCc1ccc(Cl)c(Cl)c1)N(C)CC2 (stereo not shown) [AA],4.62,185,,
"COc1cc2c(cc1O)C(CCc1ccc(Cl)cc1)N(C)CC2 (stereo not shown) [B, 1-[2-(4-Chloro-phenyl)-ethyl]-6-methoxy-2-methyl-1,2,3,4-tetrahydroisoquinolin-7-ol]",0.09,54,,
COc1cc2c(cc1OC)C(CCc1ccc(Br)cc1)N(C)CC2 (stereo not shown) [L],1.37,198,,
COc1ccc(CCC2c3cc(OC)c(OC)cc3CCN2C)cc1 (stereo not shown) [M],1.39,95,,
COc1cc2c(cc1OC)C(CCc1ccc(C(C)C)cc1)N(C)CC2 (stereo not shown) [N],1.59,370,,
COc1cc2c(cc1OC)C(CCc1ccc([N+](=O)[O-])cc1)N(C)CC2 (stereo not shown) [O],1.6,101,,
CN1CCc2cc3c(cc2C1CCc1ccc(Cl)cc1)OCO3 (stereo not shown) [P],1.7,95,,
COc1cc2c(cc1OC)C(CC(OC(C)=O)c1ccc(Cl)cc1)N(C)CC2 (stereo not shown) [Q],1.76,161,21,1.2
COc1cc2c(cc1OC)C(CCc1ccccc1)N(C)CC2 (stereo not shown) [R],2.1,147,,
CCC(=O)OC(CC1c2cc(OC)c(OC)cc2CCN1C)c1ccc(Cl)cc1 (stereo not shown) [S],2.18,123,,
CN1CCc2cc(O)c(O)cc2C1CCc1ccc(Cl)c(Cl)c1 (stereo not shown) [T],2.31,56,,
COc1cc2c(cc1OC)C(CCc1ccc([N+](=O)[O-])cc1)N(C)CC2 (stereo not shown) [U],2.71,87,,
COc1ccc2c(c1OC)CCN(C)C2CCc1ccc(Cl)cc1 (stereo not shown) [W],3.6,129,,
Cc1cc2c(cc1C)C(CCc1ccc(Cl)cc1)N(C)C(C)C2 (stereo not shown) [X],3.87,2230,,

# Continued by falling IC50 [1, 4], values first:
"IC50 [1, 4] [µM]","IC50 [1, 5] [µM]",IC50 [2] [µM],IC50 [3] [µM],Structure (SMILES)
0.91,613,,,COc1cc2c(cc1OC)C(CC(O)c1cc(Cl)c(Cl)cc1Cl)N(C)CC2 (stereo not shown) [K]
0.59,146,,,COc1ccc(C(O)CC2c3cc(OC)c(OC)cc3CCN2C)cc1 (stereo not shown) [I]
0.5,589,,,"COc1cc2c(cc1OC)C1CCCCC1NC2CCc1ccc(Cl)cc1 (stereo not shown) [H, 6-[2-(4-Chloro-phenyl)-ethyl]-8,9,dimethoxy-1,2,3,4,4a,5,6,10b-octahydrophenanthridine]"
0.46,87,,,"COc1cc2c(cc1OC)C(CC(O)c1ccc([N+](=O)[O-])cc1)N(C)CC2 (stereo not shown) [G, 2-(6,7-Dimethoxy-2-methyl-1,2,3,4-tetrahydroisoquinolin-1-yl)-1-(4-nitrophenyl)-ethanol]"
0.4,315,> 30,< 0.1,"COc1cc2c(cc1OC)C(CCc1ccc(Cl)cc1)N(C)C1CCCCC21 (stereo not shown) [F, 6-[2-(4-Chloro-phenyl)-ethyl]-8,9-dimethoxy-5-methyl-1,2,3,4,4a,5,6,10b-octahydro-phenanthridine]"
0.34,129,,,"COc1cc2c(cc1OC)C(CCc1ccc(C)cc1)N(C)CC2 (stereo not shown) [E, 6,7-Dimethoxy-2-methyl-1-(2-p-tolyl-ethyl)-1,2,3,4-tetrahydroisoquinoline]"
0.29,116,19,0.28,"CN1CCc2cc(O)c(O)cc2C1CCc1ccc(Cl)cc1 (stereo not shown) [D, 1-[2-(4-Chloro-phenyl)-ethyl] -2-methyl-1,2,3,4-tetrahydro-isoquinoline-6,7-diol]"
0.12,191,> 20,0.043,"COc1cc2c(cc1OC)C(CC(O)c1ccc(Cl)cc1)N(C)CC2 (single isomer, unassigned) [C, 1-(4-Chloro-phenyl)-2-(6,7-dimethoxy-2-methyl-1,2,3,4-tetrahydroisoquinolin-1-yl)-ethanol]"
0.04,223,> 100,≤ 0.1,"COc1cc2c(cc1OC)C(CC(O)c1ccc(C)cc1)N(C)CC2 (stereo not shown) [A, 2-(6,7-Dimethoxy-2-methyl-1,2,3,4-tetrahydroisoquinolin-1-yl)-1-p-tolyl-ethanol]"
